According to US8399482B2, “6-substituted isoquinolines and isoquinolinones” (Sanofi, priority 2008, dated 2013):

Tests used:
Format in all cases: biochemical
[1] = target: T1, recombinant human PKG1-beta (Homo sapiens, UniProt Q13976); experiment: Determination of Protein Kinase G inhibition (selectivity); conditions: from IC50 values
T1 construct: PKG1-beta (full-length, with N-terminal His-tag); His-tag (N); purchased Millipore GmbH, Schwalbach, Germany
T1 sequence (Q13976 1-686 isoform Q13976-2): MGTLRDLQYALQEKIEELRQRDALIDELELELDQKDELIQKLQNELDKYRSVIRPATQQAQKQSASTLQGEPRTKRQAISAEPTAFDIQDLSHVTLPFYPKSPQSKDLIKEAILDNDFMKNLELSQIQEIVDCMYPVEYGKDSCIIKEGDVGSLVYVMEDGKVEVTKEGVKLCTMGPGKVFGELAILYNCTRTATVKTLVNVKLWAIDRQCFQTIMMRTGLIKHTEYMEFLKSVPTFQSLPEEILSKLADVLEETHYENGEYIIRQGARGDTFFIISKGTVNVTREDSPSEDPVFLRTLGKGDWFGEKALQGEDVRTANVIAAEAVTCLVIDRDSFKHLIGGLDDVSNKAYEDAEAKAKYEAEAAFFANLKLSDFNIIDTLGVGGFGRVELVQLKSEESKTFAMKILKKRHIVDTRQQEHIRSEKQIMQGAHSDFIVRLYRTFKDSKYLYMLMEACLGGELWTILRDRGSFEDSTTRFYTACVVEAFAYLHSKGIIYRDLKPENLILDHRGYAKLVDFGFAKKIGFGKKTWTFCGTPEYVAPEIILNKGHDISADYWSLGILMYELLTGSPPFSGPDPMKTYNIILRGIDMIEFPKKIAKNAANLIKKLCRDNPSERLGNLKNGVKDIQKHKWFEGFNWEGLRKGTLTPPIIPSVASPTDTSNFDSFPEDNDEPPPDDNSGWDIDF
Protocol: (§1) 2) Determination of Protein Kinase a and Protein Kinase G Inhibition
(§2) To measure PKA and PKG1-beta inhibition, IC50 values were determined according to the following protocol:
(§3) Active recombinant human PKG1-beta (full-length, with N-terminal His-tag) was purchased from Millipore GmbH, Schwalbach, Germany. Active recombinant human PKA (residues 1-351, N-terminal His-tag) was obtained from Invitrogen, Karlsruhe, Germany. The peptide substrate, Fluorescein-[…]-COOH, was obtained from JPT Peptide Technologies, Berlin, Germany. Adenosine-5′-triphosphate (ATP), bovine serum albumine (BSA), dimethylsulphoxide (DMSO), 4-(2-Hydroxyethyl)piperazine-1-ethanesulfonic acid (Hepes), Brij-35, dithiothreitol (DTT) and Pluronic F-68 were purchased from Sigma-Aldrich, Munich, Germany. Tris(hydroxymethyl)-aminomethane (Tris), magnesium chloride, NaOH, 1M HCl and EDTA were obtained from Merck Biosciences, Darmstadt, Germany. “Complete” protease inhibitor was from Roche Diagnostics, Mannheim, Germany. Test compounds were diluted to the appropriate concentrations in buffer 1 (25 mM Tris-HCl, pH 7.4, 5 mM MgCl2, 2 mM DTT, 0.02% (w/v) BSA, 0.01% Pluronic F-68 and 3% DMSO). PKG1-beta and PKA were diluted to concentrations of 150 ng/ml and 30 ng/ml, respectively, in buffer 2. The peptide substrate and ATP were diluted to concentrations of 3 μM and 120 μM, respectively, in the buffer 2. Two μl of the compound solution were mixed with 2 μl of the diluted enzyme in a 384-well small volume microtiter plate (Greiner, Bio-One, Frickenhausen, Germany), and the kinase reaction was initiated by addition of 2 μl of the solution containing peptide substrate and ATP. After 60 min incubation at 32° C., the reaction was stopped by addition of 20 μl of a solution containing 100 mM Hepes-NaOH, pH 7.4, 0.015% (v/v) Brij-35, 45 mM EDTA and 0.227% chip coating reagent 1 (Caliper Lifescience Inc, Hopkinton, Mass.). Phosphorylation of the substrate peptide was then detected on a Caliper 3000 instrument essentially as described by Pommereau et al (J. Biomol. Screening 9(5), 409-416, 2004). Separation conditions were as follows: Pressure −1.3 psi, upstream voltage −1562 V, downstream voltage −500 V, sample sip time 200 ms, Positive controls (buffer 1 instead of compound) and negative controls (buffer 1 instead of compound and buffer 2 instead of kinase solution) were run in parallel on each plate. The following products/compounds were tested in said assay by using the respective form (salt or free base) obtained as in the examples described above and the following activities were measured.

[2] = target: T2, recombinant human PKA (Homo sapiens, UniProt P17612); experiment: Determination of Protein Kinase A inhibition (selectivity); conditions: from IC50 values
T2 construct: recombinant human PKA (residues 1-351, N-terminal His-tag); His-tag (N); purchased Invitrogen, Karlsruhe, Germany
Protocol: as §1, §2, §3

[3] = target: T3, human recombinant ROCK II (Homo sapiens, UniProt O75116); experiment: Determination of Rho kinase inhibition (ROCK II, Caliper peptide phosphorylation assay); conditions: respective form (salt or free base) as obtained in the examples, 60 min at 32° C.
T3 construct: recombinant human ROCK-II residues 11-552; His6 (N); purchased Millipore GmbH, Schwalbach, Germany
How it was run: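 Enzyme: active N-terminal His6-tagged recombinant human ROCK-II, residues 11-552. Substrate: a fluorescein-labelled peptide, with ATP. IC50 values were determined.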

T3 sequence (O75116 11-552): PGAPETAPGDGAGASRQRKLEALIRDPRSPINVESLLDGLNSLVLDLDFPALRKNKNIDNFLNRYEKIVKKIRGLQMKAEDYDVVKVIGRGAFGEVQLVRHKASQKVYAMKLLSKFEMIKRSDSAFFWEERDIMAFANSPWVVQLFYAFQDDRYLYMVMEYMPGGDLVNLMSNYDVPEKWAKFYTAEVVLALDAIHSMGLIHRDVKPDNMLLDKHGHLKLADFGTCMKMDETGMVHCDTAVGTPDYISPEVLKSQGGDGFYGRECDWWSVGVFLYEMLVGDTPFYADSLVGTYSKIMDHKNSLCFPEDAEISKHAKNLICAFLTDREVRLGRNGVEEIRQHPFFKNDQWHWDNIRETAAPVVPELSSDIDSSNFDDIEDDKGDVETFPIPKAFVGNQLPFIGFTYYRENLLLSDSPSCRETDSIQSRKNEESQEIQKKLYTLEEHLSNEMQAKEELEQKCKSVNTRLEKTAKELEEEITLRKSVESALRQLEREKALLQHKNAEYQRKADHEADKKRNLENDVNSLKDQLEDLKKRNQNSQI

SMILES	Selectivity against PKG [1] [fold]	Selectivity against PKA [2] [fold]	IC50 [3] [nM]	pIC50 [3]
CCC(N)C1(C(F)(F)F)CCC(Oc2cc3cc[nH]c(=O)c3cc2Cl)CC1 (single isomer, unassigned) [Example 103, 6-[4-(1-Amino-propyl)-4-trifluoromethyl-cyclohexyloxy]-7-chloro-2H-isoquinolin-1-one]	>1000	>1000	≤ 10	
CCC(N)C1(C2CCOCC2)CCC(Oc2cc3cc[nH]c(=O)c3cc2Cl)CC1 (single isomer, unassigned) [Example 106]	>1000	>1000	≤ 10	
CCC(N)C1(CC)CCC(Oc2cc3cc[nH]c(=O)c3cc2Cl)CC1 (single isomer, unassigned) [Example 107]	>1000	>1000	≤ 10	
CCC(N)C1(CC)CCC(Oc2cc3cc[nH]c(=O)c3cc2Cl)CC1 (single isomer, unassigned) [Example 108]	>10	>1000		+++++++ (8.0 ≦ pIC50)
CCC(N)[C@]1(CC)CC[C@H](Oc2cc3cc[nH]c(=O)c3cc2Cl)CC1 (stereo partly drawn) [Example 34, cis-6-[4-(1-Amino-propyl)-4-ethyl-cyclohexyloxy]-7-chloro-2H-isoquinolin-1-one]	>300	>1000	≤ 10	
CCCC(N)[C@]1(C(C)C)CC[C@H](Oc2cc3cc[nH]c(=O)c3cc2Cl)CC1 (stereo partly drawn) [Example 35, cis-6-[4-(1-Amino-butyl)-4-isopropyl-cyclohexyloxy]-7-chloro-2H-isoquinolin-1-one]	>10	>300	10 to 100	
CC[C@]1(C(C)N)CC[C@@H](Oc2cc3cc[nH]c(=O)c3cc2C)CC1 (stereo partly drawn) [Example 37, cis-6-[4-(1-Amino-ethyl)-4-ethyl-cyclohexyloxy]-7-methyl-2H-isoquinolin-1-one]	>100	>300	10 to 100	
CCCC[C@]1(C(N)CC)CC[C@@H](Oc2cc3cc[nH]c(=O)c3cc2Cl)CC1 (stereo partly drawn) [Example 38, cis-6-[4-(1-Amino-propyl)-4-butyl-cyclohexyloxy]-7-chloro-2H-isoquinolin-1-one]	>300	>1000	≤ 10	
CCC(N)[C@]1(CC)CC[C@H](Oc2cc3cc[nH]c(=O)c3cc2F)CC1 (stereo partly drawn) [Example 50, cis-6-[4-(1-Amino-propyl)-4-ethyl-cyclohexyloxy]-7-fluoro-2H-isoquinolin-1-one]	>10	>300	10 to 100	
CCC(N)[C@]1(CC)CC[C@H](Oc2cc3cc[nH]c(=O)c3cc2C)CC1 (stereo partly drawn) [Example 52, cis-6-[4-(1-Amino-propyl)-4-ethyl-cyclohexyloxy]-7-methyl-2H-isoquinolin-1-one]	>10	>100	100 to 1000	
CCC(N)[C@]1(CC)CC[C@H](Oc2c(C)cc3c(=O)[nH]ccc3c2C)CC1 (stereo partly drawn) [Example 54, cis-6-[4-(1-Amino-propyl)-4-ethyl-cyclohexyloxy]-5,7-dimethyl-2H-isoquinolin-1-one]	>10	>10	100 to 1000	
CCC(N)[C@]1(OC)CC[C@H](Oc2cc3cc[nH]c(=O)c3cc2Cl)CC1 (stereo partly drawn) [Example 58, cis-6-[4-(1-Amino-propyl)-4-methoxy-cyclohexyloxy]-7-chloro-2H-isoquinolin-1-one]	>300	>300	10 to 100	
CCC(N)[C@]1(OC)CC[C@@H](Oc2cc3cc[nH]c(=O)c3cc2Cl)CC1 (stereo partly drawn) [Example 59, trans-6-[4-(1-Amino-propyl)-4-methoxy-cyclohexyloxy]-7-chloro-2H-isoquinolin-1-one]	>100	>100	10 to 100	
C[C@]1(C(N)c2ccccc2)CC[C@@H](Oc2cc3cc[nH]c(=O)c3cc2Cl)CC1 (stereo partly drawn) [Example 61, cis-6-[4-(Amino-phenyl-methyl)-4-methyl-cyclohexyloxy]-7-chloro-2H-isoquinolin-1-one]	>300	>100	10 to 100	
CCCC(N)[C@]1(C)CC[C@H](Oc2cc3cc[nH]c(=O)c3cc2Cl)CC1 (stereo partly drawn) [Example 62, cis-6-[4-(1-Amino-butyl)-4-methyl-cyclohexyloxy]-7-chloro-2H-isoquinolin-1-one]	>100	>1000	≤ 10	
CC(C)CC(N)[C@]1(CC2CC2)CC[C@H](Oc2cc3cc[nH]c(=O)c3cc2Cl)CC1 (stereo partly drawn) [Example 64, cis-6-[4-(1-Amino-3-methyl-butyl)-4-cyclopropyl-methyl-cyclohexyloxy]-7-chloro-2H-isoquinolin-1-one]	>300	>1000	≤ 10	
CCC(N)[C@]1(C2CCCCC2)CC[C@H](Oc2cc3cc[nH]c(=O)c3cc2Cl)CC1 (stereo partly drawn) [Example 65]	>100	>300	10 to 100	
NC(C1CC1)[C@]1(CC2CCOCC2)CC[C@H](Oc2cc3cc[nH]c(=O)c3cc2Cl)CC1 (stereo partly drawn) [Example 68, cis-6-[4-(Amino-cyclopropyl-methyl)-4-(tetrahydro-pyran-4-ylmethyl)-cyclohexyloxy]-7-chloro-2H-isoquinolin-1-one]	>300	>1000	≤ 10	
C[C@]1(C(N)C2CC2)CC[C@@H](Oc2cc3cc[nH]c(=O)c3cc2Cl)CC1 (stereo partly drawn) [Example 69, cis-6-[4-(Amino-cyclopropyl-methyl)-4-methyl-cyclohexyloxy]-7-chloro-2H-isoquinolin-1-one]	>300	>1000	≤ 10	
CC[C@]1(C(N)C2CC2)CC[C@@H](Oc2cc3cc[nH]c(=O)c3cc2Cl)CC1 (stereo partly drawn) [Example 70, cis-6-[4-(Amino-cyclopropyl-methyl)-4-ethyl-cyclohexyloxy]-7-chloro-2H-isoquinolin-1-one]	>1000	>1000	≤ 10	
CC(N)[C@]1(C2CC2)CC[C@H](Oc2cc3cc[nH]c(=O)c3cc2Cl)CC1 (stereo partly drawn) [Example 72, cis-6-[4-(1-Amino-ethyl)-4-cyclopropyl-cyclohexyloxy]-7-chloro-2H-isoquinolin-1-one]	>100	>300	10 to 100	
